Test results published in ChEMBL document CHEMBL3885881, “DrugMatrix”.

Species: Rattus norvegicus
Experiment: DrugMatrix - Regimen: Daily Repeat
Format: toxicity, organism-based, Sprague-Dawley
Design: regimen Daily Repeat, gender Male, age 6-8 weeks
Details: in vivo, po, route oral GAVAGE, […]; for ABSOLUTE BASOPHIL / ABSOLUTE EOSINOPHIL / ABSOLUTE LYMPHOCYTE / ABSOLUTE MONOCYTE / ABSOLUTE SEGMENTED NEUTROPHIL / BASOPHIL / EOSINOPHIL / ERYTHROCYTE COUNT / HEMATOCRIT / HEMOGLOBIN / LEUKOCYTE COUNT / LYMPHOCYTE / MEAN CORPUSCULAR HEMOGLOBIN / MEAN CORPUSCULAR HEMOGLOBIN CONCENTRATION / MEAN CORPUSCULAR VOLUME / MONOCYTE / NEUTROPHIL / NUCLEATED RED BLOOD CELLS / PLATELET COUNT: tissue Blood; for ALANINE AMINOTRANSFERASE / ALBUMIN / ALKALINE PHOSPHATASE / ASPARTATE AMINOTRANSFERASE / BLOOD UREA NITROGEN / CARBON DIOXIDE / CHLORIDE / CHOLESTEROL / CREATINE PHOSPHOKINASE / CREATININE / GLUCOSE / LACTATE DEHYDROGENASE / LIPASE / PHOSPHORUS / POTASSIUM / SODIUM / TOTAL BILIRUBIN / TOTAL PROTEIN / URIC ACID: tissue Plasma
[1] = 0 mg/kg, 72 h, dose level Control, time 3 day
[2] = 0 mg/kg, dose level Control, time 7 day
[3] = 400 mg/kg, 72 h, dose level Low, time 3 day

ClC(Cl)(Cl)Cl [CARBON TETRACHLORIDE]
ABSOLUTE BASOPHIL [1]: 0 CELLS/uL | ABSOLUTE EOSINOPHIL [1]: 47.5 CELLS/uL | ABSOLUTE LYMPHOCYTE [1]: 9600.67 CELLS/uL | ABSOLUTE MONOCYTE [1]: 195.5 CELLS/uL | ABSOLUTE SEGMENTED NEUTROPHIL [1]: 839.67 CELLS/uL | BASOPHIL [1]: 0% | EOSINOPHIL [1]: 0.5% | ERYTHROCYTE COUNT [1]: 5.26 x10E6/uL | HEMATOCRIT [1]: 34.48% | HEMOGLOBIN [1]: 12.77 G/DL | LEUKOCYTE COUNT [1]: 10.68 x10E3/uL | LYMPHOCYTE [1]: 89.67% | MEAN CORPUSCULAR HEMOGLOBIN [1]: 24.3 pg | MEAN CORPUSCULAR HEMOGLOBIN CONCENTRATION [1]: 37.05 G/DL | MEAN CORPUSCULAR VOLUME [1]: 65.62 fL | MONOCYTE [1]: 1.83% | NEUTROPHIL [1]: 8% | NUCLEATED RED BLOOD CELLS [1]: 0.17 /100WBC | PLATELET COUNT [1]: 1038.67 x10E3/uL | ALANINE AMINOTRANSFERASE [1]: 65.17 u/L | ALBUMIN [1]: 4.2 G/DL | ALKALINE PHOSPHATASE [1]: 377.5 u/L | ASPARTATE AMINOTRANSFERASE [1]: 90.5 u/L | BLOOD UREA NITROGEN [1]: 13.5 mg/dL | CARBON DIOXIDE [1]: 31.17 mmol/L | CHLORIDE [1]: 98.33 MEQ/L | CHOLESTEROL [1]: 66.33 mg/dL | CREATINE PHOSPHOKINASE [1]: 478.83 u/L | CREATININE [1]: 0.19 mg/dL | GLUCOSE [1]: 155.17 mg/dL | LACTATE DEHYDROGENASE [1]: 107.5 u/L | LIPASE [1]: 10.33 u/L | PHOSPHORUS [1]: 9.25 mg/dL | POTASSIUM [1]: 5.43 MEQ/L | SODIUM [1]: 142.05 MEQ/L | TOTAL BILIRUBIN [1]: 0.12 mg/dL | TOTAL PROTEIN [1]: 5.95 G/DL | URIC ACID [1]: 0.62 mg/dL | ABSOLUTE BASOPHIL [2]: 0 CELLS/uL | ABSOLUTE EOSINOPHIL [2]: 43.5 CELLS/uL | ABSOLUTE LYMPHOCYTE [2]: 9369.83 CELLS/uL | ABSOLUTE MONOCYTE [2]: 196.17 CELLS/uL | ABSOLUTE SEGMENTED NEUTROPHIL [2]: 723.83 CELLS/uL | BASOPHIL [2]: 0% | EOSINOPHIL [2]: 0.5% | ERYTHROCYTE COUNT [2]: 5.09 x10E6/uL | HEMATOCRIT [2]: 32.42% | HEMOGLOBIN [2]: 13.1 G/DL | LEUKOCYTE COUNT [2]: 10.33 x10E3/uL | LYMPHOCYTE [2]: 90.83% | MEAN CORPUSCULAR HEMOGLOBIN [2]: 25.75 pg | MEAN CORPUSCULAR HEMOGLOBIN CONCENTRATION [2]: 40.43 G/DL | MEAN CORPUSCULAR VOLUME [2]: 63.62 fL | MONOCYTE [2]: 1.67% | NEUTROPHIL [2]: 7% | NUCLEATED RED BLOOD CELLS [2]: 0 /100WBC | PLATELET COUNT [2]: 1106.5 x10E3/uL | ALANINE AMINOTRANSFERASE [2]: 48.67 u/L | ALBUMIN [2]: 4.13 G/DL | ALKALINE PHOSPHATASE [2]: 275.17 u/L | ASPARTATE AMINOTRANSFERASE [2]: 73.17 u/L | BLOOD UREA NITROGEN [2]: 13.17 mg/dL | CARBON DIOXIDE [2]: 27.5 mmol/L | CHLORIDE [2]: 99.67 MEQ/L | CHOLESTEROL [2]: 60.83 mg/dL | CREATINE PHOSPHOKINASE [2]: 213 u/L | CREATININE [2]: 0.2 mg/dL | GLUCOSE [2]: 166.67 mg/dL | LACTATE DEHYDROGENASE [2]: 94.5 u/L | LIPASE [2]: 10.5 u/L | PHOSPHORUS [2]: 9.98 mg/dL | POTASSIUM [2]: 5.3 MEQ/L | SODIUM [2]: 140.77 MEQ/L | TOTAL BILIRUBIN [2]: 0.15 mg/dL | TOTAL PROTEIN [2]: 5.88 G/DL | URIC ACID [2]: 0.82 mg/dL | ABSOLUTE BASOPHIL [3]: 0 CELLS/uL | ABSOLUTE EOSINOPHIL [3]: 68.67 CELLS/uL | ABSOLUTE LYMPHOCYTE [3]: 9955.17 CELLS/uL | ABSOLUTE MONOCYTE [3]: 295.83 CELLS/uL | ABSOLUTE SEGMENTED NEUTROPHIL [3]: 1063.67 CELLS/uL | BASOPHIL [3]: 0% | EOSINOPHIL [3]: 0.67% | ERYTHROCYTE COUNT [3]: 5.78 x10E6/uL | HEMATOCRIT [3]: 36.52% | HEMOGLOBIN [3]: 13.38 G/DL | LEUKOCYTE COUNT [3]: 11.38 x10E3/uL | LYMPHOCYTE [3]: 87.5% | MEAN CORPUSCULAR HEMOGLOBIN [3]: 23.22 pg | MEAN CORPUSCULAR HEMOGLOBIN CONCENTRATION [3]: 36.7 G/DL | MEAN CORPUSCULAR VOLUME [3]: 63.22 fL | MONOCYTE [3]: 2.67% | NEUTROPHIL [3]: 9.17% | NUCLEATED RED BLOOD CELLS [3]: 0 /100WBC | PLATELET COUNT [3]: 836.5 x10E3/uL | ALANINE AMINOTRANSFERASE [3]: 112.17 u/L | ALBUMIN [3]: 3.92 G/DL | ALKALINE PHOSPHATASE [3]: 474.67 u/L | ASPARTATE AMINOTRANSFERASE [3]: 154.33 u/L | BLOOD UREA NITROGEN [3]: 15.5 mg/dL | CARBON DIOXIDE [3]: 31.67 mmol/L | CHLORIDE [3]: 101 MEQ/L | CHOLESTEROL [3]: 43.17 mg/dL | CREATINE PHOSPHOKINASE [3]: 313.5 u/L | CREATININE [3]: 0.21 mg/dL | GLUCOSE [3]: 143.17 mg/dL | LACTATE DEHYDROGENASE [3]: 105 u/L | LIPASE [3]: 12 u/L | PHOSPHORUS [3]: 9.75 mg/dL | POTASSIUM [3]: 5.51 MEQ/L | SODIUM [3]: 145.37 MEQ/L | TOTAL BILIRUBIN [3]: 0.1 mg/dL | TOTAL PROTEIN [3]: 5.6 G/DL | URIC ACID [3]: 0.52 mg/dL
